Molecules are shown by their SMILES. Where two headings read alike, the source gives them in different places.

Data set [1] deals with velvetleaf (Abutilon theophrasti, ABUTH). Kind of data set: Greenhouse postemergence trial, % visual injury. The data set is classed as in vivo. The conditions noted are these: for % visual injury Obs: 5 g ae/ha alone, 20-22 d.
The test system of data set [2] is winter wheat (TRZAW). Kind of data set: Greenhouse postemergence trial, crop phytotoxicity (% visual injury). Conditions: for % visual injury Obs: crop, 20-22 d; for % visual injury, Obs: TRZAW.
Data set [3] relates to poinsettia (Euphorbia heterophylla, EPHHL). Kind of data set: Greenhouse postemergence trial, % visual injury. The conditions noted are these: for pest or weed control at 5 g/ha: read-out: % visual injury Obs, 5 g ae/ha alone, 20-22 d.
The subject of data set [4] is sunflower (Helianthus annus, HELAN). Kind of data set: Greenhouse postemergence trial, % visual injury. Type of data set: in vivo. The conditions noted are these: for % visual injury Obs: 5 g ae/ha alone, 20-22 d.
Data set [5] has as its system grain sorghum (Sorghum vulgare, SORVU). Kind of data set: Greenhouse postemergence trial, % visual injury. Type of data set: in vivo. Conditions: for % visual injury Obs: 5 g ae/ha alone, 20-22 d; for % visual injury, Obs: SORVU.
For a further data set, the system named is maize (ZEAMX). Kind of data set: Greenhouse postemergence trial, crop phytotoxicity (% visual injury). The conditions noted are these: for % visual injury Obs: crop, 5 g ae/ha alone, 20-22 d; for % visual injury, Obs: ZEAMX.
In data set [6] the test system is common lambsquarters (CHEAL, Chenopodium album L.). Kind of data set: Greenhouse postemergence trial, % visual injury. The data set is classed as in vivo. The conditions noted are these: Chenopodium album, post-emergence; 5 g ae/ha alone; 20-22 d; read-out: % visual injury Obs.
Data set [7] has as its system Canadian thistle (CIRAR, Cirsium arvense). Kind of data set: Greenhouse postemergence trial, % visual injury. The conditions noted are these: for pest or weed control at 5 g/ha / pest or weed control at 400 g/ha: Cirsium arvense, post-emergence; for % visual injury, Obs: CIRAR.
Data set [8] deals with wild pansy (Viola tricolor, VIOTR). Kind of data set: Greenhouse postemergence trial, % visual injury. The conditions noted are these: for pest or weed control at 5 g/ha: Viola tricolor, post-emergence, read-out: % visual injury Obs; for % visual injury, Obs: VIOTR.
Data set [9] deals with spring rape (Brassica napus, BRSNN). Kind of data set: Greenhouse postemergence trial, % visual injury.
For a further data set, the system named is common rice (ORYSA). Kind of data set: Greenhouse postemergence trial, crop phytotoxicity (% visual injury). The conditions noted are these: for % visual injury, Obs: ORYSA.
Data set [10] relates to nutsedge (Cyperus esculentus, CYPES). Kind of data set: Greenhouse postemergence trial, % visual injury. The data set is classed as in vivo. The conditions noted are these: for % visual injury, Obs: CYPES.
Data set [11] deals with kochia (KCHSC, Kochia scoparia). Kind of data set: Greenhouse postemergence trial, % visual injury. The data set is classed as in vivo. How it is done:
Following the protocol in Example 1, compound 1 and compound 2 were combined with 2,4 D EHE (EC) and applied to kochia (KCHSC, Kochia scoparia) and the phytotoxicity of the herbicidal compositions was measured.
Following the protocol in Example 1, compound 1 (EC) and Compound 2 (SC) were combined with diflufenzopyr and applied to kochia (Kochia scoparia, KCHSC) and the phytotoxicity of the herbicidal composition was measured.

Data set [12] deals with ivyleaf morningglory (Ipomoea hederacea, IPOHE). Kind of data set: Greenhouse postemergence trial, % visual injury.
Data set [13] has as its system large crabgrass (Digitaria sanguinalis, DIGSA). Kind of data set: Greenhouse postemergence trial, % visual injury. The data set is classed as in vivo. Conditions: DIGSA, 5 g ae/ha.
Data set [14] relates to wild buckwheat (Polygonum convolvulus, POLCO). Kind of data set: Greenhouse postemergence trial, % visual injury. The data set is classed as in vivo.
The test system of data set [15] is common chickweed (Stellaria media, STEME). Kind of data set: Greenhouse postemergence trial, % visual injury. Type of data set: in vivo. The conditions noted are these: STEME, 400 g ae/ha.
In data set [16] the test system is winter wheat (TRZAW). The conditions noted are these: Triticum aestivum (winter wheat), in vivo.
Data set [17] relates to pigweed (AMARE, Amaranthus retroflexus). Kind of data set: Greenhouse postemergence trial, % visual injury. The data set is classed as in vivo. The conditions noted are these: Amaranthus retroflexus, post-emergence; 400 g ae/ha alone; 20-22 d; read-out: % visual injury Obs.
Data set [18] has as its system winter rape (BRSNW, Brassica napus). Kind of data set: Greenhouse postemergence trial, % visual injury. Type of data set: in vivo. Conditions: 400 g ae/ha alone; 20-22 d.
For another data set, the system named is spring barley (HORVS). Kind of data set: Greenhouse postemergence trial, crop phytotoxicity (% visual injury). The conditions noted are these: crop; 400 g ae/ha alone; 20-22 d.
Where [19] appears, read: Euphorbia heterophylla, post-emergence.
Where [20] appears, read: Brassica napus, post-emergence, read-out: % visual injury, Obs.
The mark [21] stands for this setting: Brassica napus, post-emergence, read-out: % visual injury (Obs).

With `Nc1c(F)c(-c2cc(F)c3[nH]ccc3c2)nc(C(=O)O)c1Cl` [compound 14], the “% visual injury Obs” value in data set [1] turned out to be 0%; with winter wheat (TRZAW) [2] (5 g ae/ha alone), 0%; in data set [4], 10%; in [5], 0%; in the data set on maize (ZEAMX), 0%. Also, the pest or weed control at 5 g/ha is 20% in [3] (setting [19]), 15% in [6], 5% in [7] (read-out: % visual injury Obs) and 10% in data set [8]. In data set [9] (Brassica napus, post-emergence, read-out: % visual injury Obs), the plant injury at 5 g/ha was determined as 10%.

Take `Nc1c(Cl)c(Cl)nc(C(=O)O)c1Cl` [picloram-potassium, reference compound]: the “% visual injury, Obs” value amounted to 0% in the data set on common rice (ORYSA) (10 g ae/ha); 0% in the data set on winter wheat (TRZAW) [2] (10 g ae/ha); 0% in data set [10] (10 g ae/ha); 0% in data set [5] (10 g ae/ha); 0% with maize (ZEAMX) (10 g ae/ha); 60% in data set [7] (10 g ae/ha). The “% visual injury, Obs” value in [8] (10 g ae/ha) stood at 0%. The pest or weed control at 10 g/ha is 35% in data set [1] (Abutilon theophrasti, post-emergence, ABUTH, 10 g ae/ha, read-out: % visual injury, Obs); 20% in data set [3] (Euphorbia heterophylla, post-emergence, read-out: % visual injury, Obs, EPHHL, 10 g ae/ha); 0% in data set [11] (Bassia scoparia, post-emergence, KCHSC, 10 g ae/ha, read-out: % visual injury, Obs); 40% in data set [12] (Ipomoea, post-emergence, read-out: % visual injury, Obs, IPOHE, 10 g ae/ha). The plant injury at 10 g/ha in data set [9] (setting [20]) came to 20%.

For `COc1c(Cl)ccc(-c2nc(C(=O)OCc3ccccc3)c(Cl)c(N)c2F)c1F` [Rinskor ™], the “% visual injury, Obs” value in the data set with common rice (ORYSA) (5 g ae/ha) came to 0%; in data set [1] (ABUTH, 5 g ae/ha), 80%; with winter wheat (TRZAW) [2] (5 g ae/ha), 0%; in [13] it was 0%; in [4] (HELAN, 5 g ae/ha) it was 85%; in data set [10] (5 g ae/ha), 70%. Besides, the “% visual injury, Obs” value in the data set on maize (ZEAMX) (5 g ae/ha) was determined as 0%; in [7] (5 g ae/ha), 70%; in data set [14] (POLCO, 5 g ae/ha), 60%; in [8] (5 g ae/ha), 10%; in [11] (KCHSC, 5 g ae/ha), 50%; in data set [9] (BRSNN, 5 g ae/ha), 20%.

With `Cc1cc(Cl)ccc1OCC(=O)O` [MCPA DMA, MCPA-dimethylammonium], the “% visual injury, Obs” value was 0% with common rice (ORYSA) (400 g ae/ha); 0% with winter wheat (TRZAW) [2] (400 g ae/ha); 65% in data set [7] (400 g ae/ha); 30% in data set [8] (400 g ae/ha); 20% in [15]. Besides, the plant injury at 400 g/ha in [9] (setting [20]) is 95%.

Take `O=C(O)CCCOc1ccc(Cl)cc1Cl` [2,4-DB DMA, 4-DB-dimethylammonium (2,4-DB DMA)]: the “% visual injury (Obs)” value in the data set on common rice (ORYSA) (2,4-DB DMA 400 g ae/ha) is given as 0%; in the data set on winter wheat (TRZAW) [2] (2,4-DB DMA 400 g ae/ha), 10%; in data set [3] (2,4-DB DMA 400 g ae/ha), 10%; in data set [10] (2,4-DB DMA 400 g ae/ha), 0%; in the data set with maize (ZEAMX) (2,4-DB DMA 400 g ae/ha), 0%; in [14] (2,4-DB DMA 400 g ae/ha), 60%. Further, the “% visual injury (Obs)” value in data set [11] (2,4-DB DMA 400 g ae/ha) was 10%; in [12] (2,4-DB DMA 400 g ae/ha), 70%. In data set [7] (read-out: % visual injury (Obs), 2,4-DB DMA 400 g ae/ha), the pest or weed control at 400 g/ha stood at 40%. The plant injury at 400 g/ha in data set [9] (setting [21]) was 70%.

On to `Nc1c(F)c(-c2ccc3cc[nH]c3c2)nc(C(=O)O)c1Cl` [compound 16], for which the “% visual injury (Obs)” value in data set [10] (compound 16 5 g ae/ha) is given as 25%; in the data set on winter wheat (TRZAW) [16], 0%; in data set [5] (compound 16 5 g ae/ha), 13%; in data set [8] (compound 16 5 g ae/ha), 25%. In addition, the pest or weed control at 5 g/ha in data set [7] (read-out: % visual injury (Obs)) came to 20%. The plant injury at 5 g/ha in [9] (setting [21]) turned out to be 60%.

Regarding `C=C(F)c1c(C(=O)O)nc(-c2ccc3cc[nH]c3c2F)c(F)c1N` [compound 15], the “% visual injury Obs” value turned out to be 30% in data set [1]; 5% in the data set on winter wheat (TRZAW) [2] (5 g ae/ha alone); 90% in [4]; 0% in data set [5]; 0% in the data set with maize (ZEAMX); 30% in data set [14] (5 g ae/ha alone, 20-22 d). The pest or weed control at 5 g/ha turned out to be 73% in data set [3] (setting [19]); 25% in [10] (Cyperus, post-emergence, 5 g ae/ha alone, 20-22 d, read-out: % visual injury Obs); 15% in data set [7] (read-out: % visual injury Obs); 33% in [8].

For `O=C(O)COc1ccc(Cl)cc1Cl` [2,4-D DMA, 2,4-D-dimethylammonium], the “% visual injury (Obs)” value was found to be 0% with common rice (ORYSA) (2,4-D DMA 400 g ae/ha); 75% in data set [1] (2,4-D DMA 400 g ae/ha); 0% with winter wheat (TRZAW) [2] (2,4-D DMA 400 g ae/ha); 80% in [4] (2,4-D DMA 400 g ae/ha); 30% in data set [10] (2,4-D DMA 400 g ae/ha); 0% in the data set on maize (ZEAMX) (2,4-D DMA 400 g ae/ha). The “% visual injury (Obs)” value in data set [8] (2,4-D DMA 400 g ae/ha) was 65%; in data set [11] (2,4-D DMA 400 g ae/ha), 10%; in data set [12] (2,4-D DMA 400 g ae/ha), 80%. The pest or weed control at 400 g/ha in [7] (read-out: % visual injury (Obs), 2,4-D DMA 400 g ae/ha) was determined as 70%. The plant injury at 400 g/ha in [9] (setting [21]) was determined as 85%.

Regarding `Cc1cc(Cl)ccc1OC(C)C(=O)O` (centres unmarked) [Mecoprop-P, mecoprop-P], the “% visual injury, Obs” value with common rice (ORYSA) (400 g ae/ha) is reported as 0%; in the data set on winter wheat (TRZAW) [2] (400 g ae/ha) it was 0%; in data set [5] (400 g ae/ha), 0%; in the data set with maize (ZEAMX) (400 g ae/ha), 0%; in [7] (400 g ae/ha) it was 10%; in data set [15], 0%. The pest or weed control at 400 g/ha is 30% in data set [1] (Abutilon theophrasti, post-emergence, ABUTH, 400 g ae/ha, read-out: % visual injury, Obs); 30% in data set [3] (Euphorbia heterophylla, post-emergence, read-out: % visual injury, Obs, EPHHL, 400 g ae/ha); 58% in data set [17]; 10% in [11] (Bassia scoparia, post-emergence, KCHSC, 400 g ae/ha, read-out: % visual injury, Obs); 30% in data set [12] (Ipomoea, post-emergence, read-out: % visual injury, Obs, IPOHE, 400 g ae/ha). Further, the “% visual injury Obs” value in the data set on winter wheat (TRZAW) [2] (400 g ae/ha alone) was determined as 0%; in data set [18], 88%; with spring barley (HORVS), 0%. In addition, the plant injury at 400 g/ha in data set [9] (setting [20]) is 30%.

For the origin of these results see patent publication US9521847B2, “Synergistic weed control from applications of pyridine carboxylic acid herbicides and synthetic auxin herbicides and/or auxin transport inhibitors” (Dow AgroSciences LLC, priority 2014, dated 2016).
